According to the NIST ThermoML archive (doi:10.1016/j.fluid.2014.04.028):
± gives the expanded uncertainty stated by the source.

Tests used:
[1] = Molar enthalpy of transition or fusion; conditions: Crystal; DSC
[2] = Crystal; DTA
[3] = molar heat capacity at constant pressure; conditions: 101.33 kPa, Small sample (50 mg) DSC

Cc1nc2n(c(=O)c1CCN1CCC(c3noc4cc(F)ccc34)CC1)CCCC2 [risperidone]
Conditions | Molar enthalpy of transition or fusion [kJ/mol] | Normal melting temperature [°C]
[1] | 43.9 ± 0.93 | –
[2] | – | 169.23 ± 0.63

[3]
Conditions | molar heat capacity at constant pressure [J/K/mol]
270.1 K, Crystal | 471 ± 12
275 K, Crystal | 476 ± 13
280.1 K, Crystal | 480 ± 12
284.9 K, Crystal | 483 ± 12
290.1 K, Crystal | 489 ± 12
294.9 K, Crystal | 495 ± 12
300.1 K, Crystal | 502 ± 12
304.9 K, Crystal | 509 ± 12
310.1 K, Crystal | 516 ± 12
314.9 K, Crystal | 523 ± 12
320.1 K, Crystal | 530 ± 12
324.9 K, Crystal | 537 ± 12
330.1 K, Crystal | 544 ± 12
334.9 K, Crystal | 551 ± 13
340 K, Crystal | 558 ± 13
345.1 K, Crystal | 564 ± 13
350 K, Crystal | 571 ± 13
355.1 K, Crystal | 578 ± 13
359.9 K, Crystal | 583 ± 13
365 K, Crystal | 590 ± 13
370.1 K, Crystal | 597 ± 13
375 K, Crystal | 602 ± 13
380.1 K, Crystal | 609 ± 13
384.9 K, Crystal | 615 ± 14
390 K, Crystal | 621 ± 14
394.9 K, Crystal | 627 ± 14
400 K, Crystal | 634 ± 14
405.1 K, Crystal | 641 ± 14
409.9 K, Crystal | 647 ± 14
430.1 K, Liquid | 839 ± 14
434.9 K, Liquid | 842 ± 14
440 K, Liquid | 845 ± 14
445.1 K, Liquid | 850 ± 14
449.9 K, Liquid | 854 ± 14
453 K, Liquid | 856 ± 14
